The source of these data is publication PMC8151276, “An Integrated Approach toward NanoBRET Tracers for Analysis of GPCR Ligand Engagement” (Molecules, 2021).

One assay has as its target T1, P2RY4 (Homo sapiens, UniProt P51582).
T1 construct: purchased Promega (in-house HiBiT-GPCR construct library, NanoBRET)
In words: NanoBRET screen HiBiT-P2RY4 in HEK293. Type of assay: binding. Particulars: P2RY4. How it is done: (§1) Each tracer candidate was screened across the entire library of HiBiT-GPCR constructs using NanoBRET as the detection modality. As depicted in Figure 4A, the specificity of interactions was evaluated through decrease in BRET due to competitive displacement of a bound tracer by excess parental compound. Each tracer was analyzed for binding to each HiBiT-GPCR fusion in the absence and in the presence of competing parental compound. Briefly, HEK293 cells were transfected with HiBiT-GPCR constructs diluted into promoterless DNA to reduce expression and maximize translocation to the cell surface. Each tracer candidate was then screened at concentrations of 1 μM and 0.1 μM across cells expressing these fusions. Cells were treated for 1.5 h with tracer either alone or in the presence of 20 μM competing parental compound (i.e., control). BRET was measured upon addition of purified LgBiT and subsequent complementation with HiBiT genetically fused to a GPCR. The specificity of interactions was assessed through a decrease in BRET signal due to competitive displacement of the bound tracer. To further gauge the robustness of these interactions, the fold response over the control (i.e., BRETtracer/BRETcontrol) was calculated. We chose a 1.5-fold response, which translates to ≥7-fold signal over noise as the minimal threshold required to score an interaction as positive. […]. Below we highlight the screening results obtained for our exemplary fluorescent tracers based on Clozapine, Amitriptyline and AZD1283.
(§2) HiBiT-GPCR DNA constructs were diluted in 10 mM Tris pH 8 to a final concentration of 0.01 μg/μL, arrayed in 96-well plates and stored at −20 °C. For transfection, HEK293 cells were suspended in Opti-MEM (without phenol red) supplemented with 2% fetal bovine serum (Seradigm) and 100 units/mL penicillin–streptomycin (Gibco) at a final concentration of 220,000 cells/mL and dispensed into white 96-well plates at 90 μL/well. Subsequent transfections and screens were carried using an Agilent Bravo Automated Liquid Handling Platform. First, the 96-well HiBiT DNA arrays were diluted 25-fold in Opti-MEM (without serum or phenol red) to a final concentration of 0.0004 μg/μL and 20 μL of the diluted DNAs were transferred into new 96-well plates. Next, promoterless carrier DNA (1 μg/μL) was diluted 25-fold (0.04 μg/μL) and then dispensed into the diluted arrays at 20 μL/well. Following brief mixing, Viafect transfection reagent (Promega) diluted 16-fold into Opti-MEM was dispensed into the plates at 40 μL/well. After mixing by pipetting, plates were incubated for 10 min on the pipetting station deck. The DNA-transfection reagent complexes were then added to plates containing cells. To facilitate the screen, 10 μL of DNA-transfection reagent complexes were added in duplicates to the top 4 and bottom 4 rows, resulting in two identical 48-well arrays per plate. Plates with transfected cells were incubated for 18–20 h at 37 °C/5% CO2. A screen of each tracer across the entire library using two different concentrations requires duplicate plates of transfected cells. Depending on the number of tracers being screened, transfections can be scaled up using the same ratios. The next day, for each tracer, four 20× screening solutions in tracer dilution buffer (Promega) were prepared: two duplicates at final concentration of 20 μM and two duplicates at a final concentration of 2 μM. A competing unmodified compound was added to one of each duplicate at a final concentration of 400 μM. The four resulting solutions were diluted 4-fold in Opti-MEM without serum or phenol red to generate 5× solutions (5 µM and 0.5 µM tracer +/− 100 μM competing compound). To screen the library, a BioTek MultiFlo FX liquid dispenser was used to dispense 22.5 µL of tracer solution to the top 4 rows and 22.5 µL tracer + competing compound solution to the 4 bottom rows. Plates were briefly mixed on an orbital shaker and incubated for 1.5 h at room temperature. […]
(In general: In BRET a luciferase serves as donor, and the signal depends on an acceptor being close.)

The next assay addresses T2, CYSLTR2 (Homo sapiens, UniProt Q9NS75).
T2 construct: purchased Promega (in-house HiBiT-GPCR construct library, NanoBRET)
T2 sequence (Q9NS75 1-346): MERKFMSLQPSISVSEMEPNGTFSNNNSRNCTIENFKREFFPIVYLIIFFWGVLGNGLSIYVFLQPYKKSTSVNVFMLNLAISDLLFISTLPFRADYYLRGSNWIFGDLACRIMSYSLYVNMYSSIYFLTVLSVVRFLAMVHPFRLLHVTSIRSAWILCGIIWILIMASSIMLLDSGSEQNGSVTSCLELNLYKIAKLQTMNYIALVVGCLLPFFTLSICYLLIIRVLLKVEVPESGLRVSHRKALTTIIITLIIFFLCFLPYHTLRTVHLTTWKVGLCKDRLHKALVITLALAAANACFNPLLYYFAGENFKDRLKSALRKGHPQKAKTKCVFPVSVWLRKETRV
In words: NanoBRET screen HiBiT-CYSLTR2 in HEK293. To be noted: CYSLTR2. The format is binding. How it is done: as §1, §2

T1 sequence (P51582 whole entry): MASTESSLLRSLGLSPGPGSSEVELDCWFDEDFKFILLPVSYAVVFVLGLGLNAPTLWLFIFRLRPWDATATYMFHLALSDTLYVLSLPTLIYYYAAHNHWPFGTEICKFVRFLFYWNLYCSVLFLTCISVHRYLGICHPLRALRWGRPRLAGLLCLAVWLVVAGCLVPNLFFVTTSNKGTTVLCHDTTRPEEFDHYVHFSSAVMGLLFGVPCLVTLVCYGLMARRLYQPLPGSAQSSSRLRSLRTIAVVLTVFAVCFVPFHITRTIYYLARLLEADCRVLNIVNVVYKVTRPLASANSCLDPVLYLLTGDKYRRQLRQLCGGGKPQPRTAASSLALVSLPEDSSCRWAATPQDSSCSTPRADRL

Regarding `O=C(CCOCCOCCOCCOCCNC(=O)CCc1ccc2n1[B-](F)(F)[N+]1=C(c3ccc[nH]3)C=CC1=C2)NCCCN1CCN(C2=Nc3cc(Cl)ccc3Nc3ccccc32)CC1` [Clozapine-a-2-NB590], the “NanoBRET Fold Response” value at P2RY4 (0.1μM tracer) is given as 1.09; at P2RY4 (1μM tracer) it was 0.96; at CYSLTR2 (0.1μM tracer) it was 0.99; on CYSLTR2 (1μM tracer), 1.03.
As to `CN1CCN(C2=Nc3cc(Cl)ccc3Nc3ccc(CNC(=O)CCOCCOCCOCCOCCNC(=O)CCc4ccc5n4[B-](F)(F)[N+]4=C(c6ccc[nH]6)C=CC4=C5)cc32)CC1` [Clozapine-b-2-NB590], the “NanoBRET Fold Response” value was found to be 0.97 at P2RY4 (0.1μM tracer), 0.97 at P2RY4 (1μM tracer), 1.01 on CYSLTR2 (0.1μM tracer) and 1.03 on CYSLTR2 (1μM tracer).
For the compound `Cc1nc2n(c(=O)c1CCN1CCC(c3noc4cc(F)ccc34)CC1)CCCC2OC(=O)NCCOCCOCCOCCOCCNC(=O)CCc1ccc2n1[B-](F)(F)[N+]1=C(c3ccc[nH]3)C=CC1=C2` (stereo not drawn) [Risperidone-2-NB590], the “NanoBRET Fold Response” value was 1.08 on P2RY4 (tracer 0.1μM), 0.90 at P2RY4 (tracer 1μM), 0.97 on CYSLTR2 (tracer 0.1μM) and 1.15 at CYSLTR2 (tracer 1μM).
